Test results as given in patent US7217704B2, “LPA receptor agonists and antagonists and methods of use” (The University of Tennessee Research Foundation, priority 2003, dated 2007).
“Also recorded” adds a separate entry of the source. Read-outs that look alike come from different tables or passages of the source.

How the values were obtained:
LPA1 = biological target: T1, LPA1 (Homo sapiens, UniProt Q92633); assay: Ca2+ transients (agonism / inhibition of LPA response) in RH7777 cells stably expressing LPA1; format: cell-based
T1 construct: expressed in transfected cells
T1 sequence (Q92633 whole entry): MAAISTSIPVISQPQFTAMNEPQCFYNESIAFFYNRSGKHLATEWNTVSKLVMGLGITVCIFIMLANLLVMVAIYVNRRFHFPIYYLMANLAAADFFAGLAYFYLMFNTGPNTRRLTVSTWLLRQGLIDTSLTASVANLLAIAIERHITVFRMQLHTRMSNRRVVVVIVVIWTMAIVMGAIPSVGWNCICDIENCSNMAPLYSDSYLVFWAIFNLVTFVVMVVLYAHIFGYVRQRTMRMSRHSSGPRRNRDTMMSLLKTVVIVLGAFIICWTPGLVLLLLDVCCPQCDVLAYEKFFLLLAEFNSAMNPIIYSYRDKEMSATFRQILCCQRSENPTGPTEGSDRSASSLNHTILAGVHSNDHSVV
Description: (§1) The culture medium (DMEM containing 10% FBS) was then replaced with modified Krebs solution (120 mM NaCl, 5 mM KCl, 0.62 mM MgSO4, 1.8 mM CaCl2, 10 mM HEPES, 6 mM glucose, pH 7.4) and the cells were serum starved for 6–8 hours (12 h for PC-3 cells). Cells were loaded with Fura-2 AM for 35 minutes in modified Krebs medium. The Fura-2 was removed before loading the plate in the FlexStation instrument by replacing the medium once again with 100 μl modified Krebs medium/well. Plates were incubated for 4 minutes in the instrument to allow for warming to 37° C. Changes in intracellular Ca^2+ concentration were monitored by measuring the ratio of emitted light intensity at 520 nm in response to excitation by 340 nm and 380 nm wavelength lights, respectively. Each well was monitored for 80–120 seconds. […] Time courses were recorded using the SoftMax Pro software (Molecular Devices, Sunnyvale, Calif.). Ca^2+ transients were quantified automatically by calculating the difference between maximum and baseline ratio values for each well.
(§2) Each FAP analog was tested for the ability to induce Ca^2+ transients in RH7777 cells transfected with LPA1-3 receptors (agonism), as well as the ability to inhibit LPAinduced Ca^2+ transients in the same cells (antagonism) (Table 3).

LPA3 = biological target: T2, LPA3 (Homo sapiens, UniProt Q9UBY5); assay: Ca2+ transients (agonism / inhibition of LPA response) in RH7777 cells stably expressing LPA3; format: cell-based
T2 construct: expressed in transfected cells
T2 sequence (Q9UBY5 1-353): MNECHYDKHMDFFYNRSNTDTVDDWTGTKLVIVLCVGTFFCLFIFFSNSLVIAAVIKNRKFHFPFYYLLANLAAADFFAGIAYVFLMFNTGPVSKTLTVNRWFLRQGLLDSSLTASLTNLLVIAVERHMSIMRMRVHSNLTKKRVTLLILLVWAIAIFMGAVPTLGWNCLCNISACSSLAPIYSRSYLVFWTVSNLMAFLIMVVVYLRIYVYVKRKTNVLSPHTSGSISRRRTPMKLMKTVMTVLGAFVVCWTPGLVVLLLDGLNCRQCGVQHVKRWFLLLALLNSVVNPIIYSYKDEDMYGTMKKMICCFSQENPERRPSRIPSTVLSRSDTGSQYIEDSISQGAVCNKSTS
Description: as §1, §2

PC-3 cells = assay: Ca2+ transients in PC-3 cells endogenously expressing LPA1-3; format: cell-based, human
Description: as §1
We tested the FAP analogs in PC-3 cells, which unlike the transfected RH7777 cells endogenously express LPA1-3 receptors.

LPA2 = biological target: T3, LPA2 (Homo sapiens, UniProt Q9HBW0); assay: Ca2+ transients (agonism / inhibition of LPA response) in RH7777 cells stably expressing LPA2; format: cell-based; conditions: for EC50: read-out: LPA2 EC50
T3 construct: expressed in transfected cells
T3 sequence (Q9HBW0 whole entry): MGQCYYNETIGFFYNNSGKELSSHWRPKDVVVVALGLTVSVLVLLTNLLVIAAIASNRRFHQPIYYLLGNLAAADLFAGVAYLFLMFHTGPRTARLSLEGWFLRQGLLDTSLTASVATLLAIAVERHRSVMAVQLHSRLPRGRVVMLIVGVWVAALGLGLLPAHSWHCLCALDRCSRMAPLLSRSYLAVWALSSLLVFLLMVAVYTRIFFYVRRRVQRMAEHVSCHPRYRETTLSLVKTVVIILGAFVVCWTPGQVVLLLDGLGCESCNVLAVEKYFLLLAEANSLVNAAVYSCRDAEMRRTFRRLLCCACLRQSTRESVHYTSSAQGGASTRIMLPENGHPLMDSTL
Description: as §1, §2

[1] = induction of Ca2+ transients, RH7777 cells expressing LPA3, read-out: LPA3 EC50
[2] = inhibition of LPA-induced Ca2+ transients, RH7777 cells expressing LPA3, read-out: LPA3 (Ki)
[3] = inhibition of LPA-induced Ca2+ transients, RH7777 cells expressing LPA3, read-out: LPA3 IC50
[4] = induction of Ca2+ transients, RH7777 cells expressing LPA1, read-out: LPA1 EC50
[5] = Homo sapiens, inhibition of LPA-induced Ca2+ transients, PC-3 cells, read-out: PC-3 IC50
[6] = inhibition of LPA-induced Ca2+ transients, PC-3 cells
[7] = RH7777, maximal efficacy of the drug/maximal efficacy of LPA 18:1, read-out: LPA2 (Emax)
[8] = inhibition of LPA-induced Ca2+ transients, RH7777 cells expressing LPA2, read-out: LPA2 IC50
[9] = inhibition of LPA-induced Ca2+ transients, RH7777 cells expressing LPA1, read-out: LPA1 IC50
[10] = induction of Ca2+ transients, RH7777 cells expressing LPA2
[11] = Homo sapiens, PC-3, read-out: PC-3 IC50

Structure (SMILES)	EC50 (LPA3; [1])	Ki (LPA3; [2])	IC50 (LPA3; [3])	EC50 (LPA1; [4])	IC50 (PC-3 cells; [5])	Ki (PC-3 cells; [6])	Emax (LPA2; [7])	IC50 (LPA2; [8])	EC50 (LPA3)	IC50 (LPA1; [9])	EC50 (LPA2; [10])	EC50 (LPA1)	IC50 (LPA1)	IC50 (PC-3 cells; [11])	further results
CCCCCCCCOC[C@@H](COP(O)(O)=S)OCCCCCCCC [(S) enantiomer]															IC50 (LPA1; for 200 nM LPA, formula (VII)A enantiomer, method not stated at b93, read-out: IC50 for LPA1): 184 nM
C=CCCCCCCCCOP(=O)(O)O [Compound 5a, Phosphoric acid monodec-9-enyl ester]	> 30000 nM	504 nM	770 nM	> 30000 nM	1510 nM	574 nM	100%	> 30000 nM							
CCCCCC=CCCCOP(=O)(O)O [Compound 5b, Phosphoric acid monodec-4-enyl ester]				> 30000 nM	1300 nM	735 nM		> 30000 nM	> 30000 nM	> 10000 nM	> 10000 nM				IC50 (LPA3): 830 nM; Ki (LPA3): 370 nM
CCC=CCCCCCCCCOP(=O)(O)O [Compound 5c, Phosphoric acid monododec-9-enyl ester]	> 30000 nM	27 nM	32 nM	> 30000 nM	916 nM	390 nM		> 30000 nM		> 10000 nM	717 nM				
CCCCC=CCCCCCCCCOP(=O)(O)O [Compound 5d, Phosphoric acid monotetradec-9-enyl ester]	> 30000 nM	58 nM	96 nM		241 nM	123 nM	58%	> 30000 nM			397 nM				
CCC=CCCCCCCCCCCOP(=O)(O)O [Compound 5e, Phosphoric acid monotetradec-11-enyl ester]	> 30000 nM	40 nM	103 nM				75%	> 30000 nM			4100 nM				
CCCCCCCCC=CCCCCCCCCOP(=O)(O)O [Compound 5f, Phosphoric acid monooctadec-9-enyl ester]	> 30000 nM		> 30000 nM	> 30000 nM				> 30000 nM		> 30000 nM	> 30000 nM				effect at LPA3 in words (LPA3; Ca2+ transients, RH7777 cells expressing LPA3): did not inhibit nor did it activate Ca^2+ mobilization; also recorded: potentiated LPA response; effect at LPA1 in words (LPA1; Ca2+ transients, RH7777 cells expressing LPA1): did not inhibit nor did it activate Ca^2+ mobilization; also recorded: potentiated LPA response; Emax (PC-3 cells; Homo sapiens, PC-3, maximal efficacy of the drug/maximal efficacy of LPA 18:1, read-out: PC-3 (Emax)): 11%
CCCCCCCCCCOP(O)(O)=S [Compound 8a, Thiophosphoric acid O-decyl ester]		49 nM	122 nM			521 nM			> 30000 nM			> 30000 nM	> 30000 nM	1220 nM	
CCCCCCCCCCCCOP(O)(O)=S [Compound 8b, Thiophosphoric acid O-dodecyl ester]		14 nM	28 nM			1300 nM			> 30000 nM			> 30000 nM	> 30000 nM	2840 nM	
CCCCCCCCCCCCCCOP(O)(O)=S [Compound 8c, Thiophosphoric acid O-tetradecyl ester]		76 nM	162 nM						> 30000 nM			> 30000 nM	> 30000 nM	> 30000 nM	EC50 (PC-3 cells; Homo sapiens, PC-3, read-out: PC-3 EC50): > 30000 nM
C=CCCCCCCCCOP(O)(O)=S [Compound 8d, Thiophosphoric acid O-dec-9-enyl ester]		128 nM	340 nM			533 nM			> 30000 nM			> 30000 nM	> 30000 nM	1000 nM	IC50 (LPA2): > 30000 nM; Emax (LPA2; RH7777, read-out: LPA2 (Emax)): 56%
CCCCCCCCCCCCCCC(F)(F)P(=O)(O)O [Compound 11, (1,1-Difluoro-pentadecyl) Phosphonic Acid]	> 30000 nM	575 nM	1510 nM	> 30000 nM			40%	> 30000 nM		2500 nM					Ki (LPA1; inhibition of LPA-induced Ca2+ transients, RH7777 cells expressing LPA1): 788 nM; inhibition of LPA response at LPA1 (partial antagonism) (LPA1; maximal inhibition): 40%; EC50 (LPA2; RH7777 cells expressing LPA2): 10000 nM
